Test results: patent publication US8900845B2, “Methods and uses of KSR kinase, and mutations thereof” (Washington University, priority 2011, dated 2014)

Columns and labels:
[1] = molecular target: KSR kinase activity towards MEK (Homo sapiens, UniProt P04049); details: cells co-expressing KSR and CRAF treated with 10 μM for one hour; immunoprecipitates pre-treated with 50 μM PLX
Experimental: Kinase reactions: Cells transfected with various constructs were treated or not with PLX4720 for 1-2 hours. Cells were lysed with 1% NP40 and immunoprecipitates prepared. In vitro kinase reactions were performed in a standard buffer with 10 mM MgCl2, with 1 ug of kinase dead MEK, and 100 uM cold ATP. In some experiments, to inhibit contaminating Raf activity, 50 uM PLX4720 was preincubated with the reactions.
To test whether KSR might be activated by CRAF, we co-expressed KSR and CRAF and induced dimerization of CRAF with KSR by adding a low dose (10 μM) of PLX4720. KSR immunoprecipitates were then prepared and tested for kinase activity in vitro. To inhibit any contaminating RAF kinase activity co-precipitating with KSR, we preincubated the immunoprecipitates with an inhibitory dose of PLX4720 (50 μM). […] Cells were co-transfected with WT or ATP binding deficient KSR and CRAF and immunoprecipitates prepared after cells were treated with an activating dose of PLX (10 μM) for one hour. Immunoprecipitates were prepared, pre-treated with 50 μM PLX to inhibit co-precipitating RAF activity and then tested for kinase activity using purified MEK.

[2] = molecular target: T1, KSR and CRAF dimer (Homo sapiens, UniProt P04049); assay: Co-immunoprecipitation of KSR/CRAF dimers in drug-treated cells; assay type: cell-based; details: cells overexpressing FLAG-KSR and myc-CRAF, drug for 1 hour, FLAG-KSR immunoprecipitates immunoblotted for CRAF (myc)
T1 construct: expressed in transfected cells; host or cells: 293T cells
Experimental: (§1) Dimerization experiments: For most experiments, constructs for wild-type and mutated BRAF, CRAF and KSR1 were appended with epitope tags (FLAG, 6× His, Myc, GFP) and were expressed by transient transfection into 293T cells. Cells were lysed in a buffer containing 1% NP40 and 0.1% deoxycholate. Cells were pretreated with drugs for 1 hour prior to lysis. Immunoprecipitates were analyzed by gel electrophoresis and immunoblotted after transfer to nitrocellulose membranes using standard methods.
(§2) Cells grown in serum, expressing combinations of KSR, BRAF and CRAF, were treated with both drugs. Co-immunoprecipitations were then performed to examine dimer formation.
(§3) KSR immunoprecipitates were prepared from cells overexpressing FLAG-KSR and BRAF after treatment with the indicated drug for 1 hour and immunoblotted using antibodies to BRAF.

[3] = tested on: MEK phosphorylation (pMEK); assay: MEK activation (pMEK immunoblot) in cells co-expressing KSR and CRAF; assay type: cell-based; details: saturating dose, 2 hours
Experimental: Kinase reactions: Cells transfected with various constructs were treated or not with PLX4720 for 1-2 hours. Cells were lysed with 1% NP40 and immunoprecipitates prepared.
In these experiments, we tested the function of the CRAF/KSR dimer by co-expressing both proteins and using PLX4720 (FIG. 1F) or GDC0879 (data not shown) to induce dimer formation between the two proteins. […] Cells expressing the indicated constructs were treated with a saturating dose of PLX for 2 hours before cell lysates were prepared and analyzed for pMEK by immunoblotting.

[4] = molecular target: FLAG-KSR and BRAF dimer (Homo sapiens, UniProt P15056); assay: Co-immunoprecipitation of KSR/BRAF dimers in drug-treated cells; assay type: cell-based; details: cells overexpressing FLAG-KSR and BRAF, drug for 1 hour, KSR immunoprecipitates immunoblotted for BRAF
Experimental: as §1, §2, §3

[5] = molecular target: BRAF/CRAF dimers (Homo sapiens, UniProt P04049+P15056); details: cells overexpressing myc-CRAF and BRAF, drug for 1 hour, CRAF immunoprecipitates immunoblotted for BRAF
Chain of BRAF/CRAF dimers (P15056 whole entry): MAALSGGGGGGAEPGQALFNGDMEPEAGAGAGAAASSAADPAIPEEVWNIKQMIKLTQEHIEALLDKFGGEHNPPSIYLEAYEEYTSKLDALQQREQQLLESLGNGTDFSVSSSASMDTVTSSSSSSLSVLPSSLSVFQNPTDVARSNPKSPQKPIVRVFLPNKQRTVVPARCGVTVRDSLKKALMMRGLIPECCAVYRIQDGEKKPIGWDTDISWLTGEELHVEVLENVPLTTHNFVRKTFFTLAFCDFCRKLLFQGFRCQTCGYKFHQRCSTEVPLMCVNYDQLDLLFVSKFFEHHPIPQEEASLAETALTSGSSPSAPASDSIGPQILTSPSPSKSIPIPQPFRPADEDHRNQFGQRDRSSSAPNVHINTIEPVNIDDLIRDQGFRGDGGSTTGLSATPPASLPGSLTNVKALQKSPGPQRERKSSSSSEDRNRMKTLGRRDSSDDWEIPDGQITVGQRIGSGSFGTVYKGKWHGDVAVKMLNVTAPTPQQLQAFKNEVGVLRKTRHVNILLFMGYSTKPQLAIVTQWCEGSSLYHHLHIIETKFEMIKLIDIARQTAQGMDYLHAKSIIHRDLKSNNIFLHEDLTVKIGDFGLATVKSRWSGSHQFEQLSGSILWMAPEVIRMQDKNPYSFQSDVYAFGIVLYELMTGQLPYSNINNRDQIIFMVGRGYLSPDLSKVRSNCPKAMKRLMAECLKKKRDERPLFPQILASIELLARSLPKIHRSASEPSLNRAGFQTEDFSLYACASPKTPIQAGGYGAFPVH
Chain of BRAF/CRAF dimers (P04049 whole entry): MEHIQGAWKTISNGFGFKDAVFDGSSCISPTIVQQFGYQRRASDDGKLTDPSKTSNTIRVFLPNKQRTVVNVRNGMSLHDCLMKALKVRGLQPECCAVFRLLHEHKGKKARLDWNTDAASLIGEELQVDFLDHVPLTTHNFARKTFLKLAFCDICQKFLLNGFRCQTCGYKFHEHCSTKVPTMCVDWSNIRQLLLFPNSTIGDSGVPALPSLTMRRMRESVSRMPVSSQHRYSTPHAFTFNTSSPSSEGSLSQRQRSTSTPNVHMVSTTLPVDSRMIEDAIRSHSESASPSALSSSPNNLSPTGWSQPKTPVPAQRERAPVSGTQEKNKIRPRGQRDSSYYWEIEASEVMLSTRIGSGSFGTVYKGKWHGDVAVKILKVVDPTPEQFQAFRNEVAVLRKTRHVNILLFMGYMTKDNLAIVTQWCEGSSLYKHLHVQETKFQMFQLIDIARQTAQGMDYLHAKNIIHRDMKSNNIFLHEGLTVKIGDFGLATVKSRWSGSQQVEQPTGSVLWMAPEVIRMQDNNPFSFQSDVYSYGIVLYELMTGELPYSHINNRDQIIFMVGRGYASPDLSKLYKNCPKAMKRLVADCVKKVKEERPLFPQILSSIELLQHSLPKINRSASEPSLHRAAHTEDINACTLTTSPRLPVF
Experimental: as §1, §2, §3

Chain of KSR kinase activity towards MEK (Q61097 whole entry partner): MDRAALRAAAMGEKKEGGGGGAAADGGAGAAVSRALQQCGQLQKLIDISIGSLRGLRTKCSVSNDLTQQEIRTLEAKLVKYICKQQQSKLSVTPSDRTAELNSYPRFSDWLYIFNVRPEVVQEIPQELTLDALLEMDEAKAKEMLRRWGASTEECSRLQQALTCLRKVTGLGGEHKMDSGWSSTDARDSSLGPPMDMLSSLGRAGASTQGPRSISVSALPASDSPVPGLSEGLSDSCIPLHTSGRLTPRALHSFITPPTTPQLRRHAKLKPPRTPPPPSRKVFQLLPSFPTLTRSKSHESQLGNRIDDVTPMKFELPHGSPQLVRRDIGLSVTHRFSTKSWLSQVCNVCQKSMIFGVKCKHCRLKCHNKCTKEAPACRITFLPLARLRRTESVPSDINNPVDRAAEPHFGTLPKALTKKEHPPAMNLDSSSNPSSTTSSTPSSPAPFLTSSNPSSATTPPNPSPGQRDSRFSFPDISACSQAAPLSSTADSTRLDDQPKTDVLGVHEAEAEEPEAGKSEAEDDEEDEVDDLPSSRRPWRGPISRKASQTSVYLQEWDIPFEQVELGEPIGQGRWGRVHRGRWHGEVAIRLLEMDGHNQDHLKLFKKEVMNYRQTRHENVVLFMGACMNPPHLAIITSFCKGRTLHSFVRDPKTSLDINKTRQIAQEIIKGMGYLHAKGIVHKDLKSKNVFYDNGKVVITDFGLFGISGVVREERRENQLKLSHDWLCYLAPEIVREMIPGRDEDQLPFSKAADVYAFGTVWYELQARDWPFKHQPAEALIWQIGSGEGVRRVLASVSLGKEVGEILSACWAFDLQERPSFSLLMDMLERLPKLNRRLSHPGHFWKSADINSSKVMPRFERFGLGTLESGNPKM
Chain of KSR kinase activity towards MEK (P04049 whole entry): as the sequence (P04049 whole entry) above
T1 sequence (P04049 whole entry): as above
T1 sequence (Q61097 whole entry partner): as the sequence (Q61097 whole entry partner) above
Chain of FLAG-KSR and BRAF dimer (P15056 whole entry): as the sequence (P15056 whole entry) above
Chain of FLAG-KSR and BRAF dimer (Q61097 whole entry partner): as the sequence (Q61097 whole entry partner) above

Question: Which “kinase activity towards MEK in KSR immunoprecipitates” value [1] does the source give for `CCCS(=O)(=O)Nc1ccc(F)c(C(=O)c2c[nH]c3ncc(Cl)cc23)c1F` [PLX4720] here?
Answer: induced kinase activity towards MEK in the KSR immunoprecipitates

Question: What about the “dimer formation between KSR and CRAF” value [2] of the same compound?
Answer: induce dimer formation between KSR and CRAF

Question: What about the “MEK activation (pMEK)” value [3] of the same compound?
Answer: MEK was still activated

Question: What about the “dimer formation between KSR and BRAF” value [4] of the same compound?
Answer: but not PLX4720 can induce dimer formation between FLAG-KSR and BRAF

Question: And the “dimer formation between BRAF and CRAF” value [5]?
Answer: but not PLX4720 induces dimers between BRAF and CRAF
